Biological target: T1, Histone deacetylase 6 (Homo sapiens, UniProt Q9UBN7)
T1 sequence (Q9UBN7 whole entry): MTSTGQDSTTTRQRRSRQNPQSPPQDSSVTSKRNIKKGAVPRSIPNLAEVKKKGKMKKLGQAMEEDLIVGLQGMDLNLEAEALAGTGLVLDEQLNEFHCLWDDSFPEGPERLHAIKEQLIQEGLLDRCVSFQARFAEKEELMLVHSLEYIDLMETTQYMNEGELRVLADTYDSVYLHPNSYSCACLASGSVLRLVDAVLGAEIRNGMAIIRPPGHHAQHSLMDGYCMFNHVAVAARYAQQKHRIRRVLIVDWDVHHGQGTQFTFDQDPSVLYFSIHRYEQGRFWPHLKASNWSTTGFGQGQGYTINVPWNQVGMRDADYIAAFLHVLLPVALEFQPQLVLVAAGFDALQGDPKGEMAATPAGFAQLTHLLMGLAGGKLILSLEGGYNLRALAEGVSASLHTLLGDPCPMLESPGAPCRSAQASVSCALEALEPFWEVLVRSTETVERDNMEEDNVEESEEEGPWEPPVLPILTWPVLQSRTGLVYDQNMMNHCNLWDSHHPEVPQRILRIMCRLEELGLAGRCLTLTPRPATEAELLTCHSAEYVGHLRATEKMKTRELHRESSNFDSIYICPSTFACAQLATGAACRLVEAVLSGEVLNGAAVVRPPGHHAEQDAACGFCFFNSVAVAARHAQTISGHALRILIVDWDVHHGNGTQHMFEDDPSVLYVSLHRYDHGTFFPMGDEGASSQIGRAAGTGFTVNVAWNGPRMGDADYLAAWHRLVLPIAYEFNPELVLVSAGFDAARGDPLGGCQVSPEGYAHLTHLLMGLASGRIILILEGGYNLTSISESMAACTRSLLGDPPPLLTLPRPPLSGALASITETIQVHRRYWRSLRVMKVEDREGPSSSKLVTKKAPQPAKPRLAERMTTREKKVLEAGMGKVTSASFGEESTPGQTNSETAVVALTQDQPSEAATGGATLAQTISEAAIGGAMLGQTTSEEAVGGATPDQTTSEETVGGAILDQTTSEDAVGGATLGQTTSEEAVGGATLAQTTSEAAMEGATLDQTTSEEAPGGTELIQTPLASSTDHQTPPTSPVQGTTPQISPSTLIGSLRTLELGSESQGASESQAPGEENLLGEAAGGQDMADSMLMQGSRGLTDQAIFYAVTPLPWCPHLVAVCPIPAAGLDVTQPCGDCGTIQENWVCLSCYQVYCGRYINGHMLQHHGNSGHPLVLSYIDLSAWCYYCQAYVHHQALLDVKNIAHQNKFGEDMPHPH
Assay: Inhibition of HDAC6 (unknown origin) using Fluor de lys as substrate by fluorescence based analysis

Compound	IC50 [µM]
CCc1cc(Cc2cnc(N)nc2N)cc(CC)c1N	0.018
CCCCCCCCCCCCOc1c(CC)cc(Cc2cnc(N)nc2N)cc1CC	0.011
Nc1ncc(Cc2ccc3c(c2)CCCN3)c(N)n1	0.017
COCCOc1cc(Cc2cnc(N)nc2N)cc2c1NCCC2	0.016
